# Assay results published in ChEMBL document CHEMBL3808277, “Identification of a Potent and Selective GPR4 Antagonist as a Drug Lead for the Treatment of Myocardial Infarction” (ACS Med Chem Lett, 2016).
# The source made the active and inactive calls. The rule behind the calls is not given here.
# How the values were obtained:
# [1] = target: T1, G-prodeshotein coupled receptor 4 (Homo sapiens, UniProt P46093); experiment: Antagonist activity at N-terminal HA-tagged GPR4 (unknown origin) expressed in HEK293 cells assessed as pH dependent cAMP response element-driven transcriptional activity ratio at 10 uM at pH 7.2 incubated for 6 hrs by dual luciferase reporter gene assay relative to untreated control; type: functional, cell-based
# Target sequence in this assay (P46093 whole entry, looked up): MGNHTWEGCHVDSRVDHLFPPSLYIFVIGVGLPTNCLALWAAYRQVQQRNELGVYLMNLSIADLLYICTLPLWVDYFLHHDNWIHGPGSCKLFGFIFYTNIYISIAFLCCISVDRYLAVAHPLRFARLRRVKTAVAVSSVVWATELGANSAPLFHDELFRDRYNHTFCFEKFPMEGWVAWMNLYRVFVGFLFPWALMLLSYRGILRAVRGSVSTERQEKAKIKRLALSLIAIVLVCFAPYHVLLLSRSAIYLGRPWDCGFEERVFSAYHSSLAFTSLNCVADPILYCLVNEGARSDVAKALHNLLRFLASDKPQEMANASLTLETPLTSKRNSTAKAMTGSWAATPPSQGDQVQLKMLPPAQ
# [2] = target: T1, G-prodeshotein coupled receptor 4; experiment: Antagonist activity at N-terminal HA-tagged GPR4 (unknown origin) expressed in HEK293 cells assessed as inhibition of pH dependent cAMP response element-driven transcriptional activity at pH 7.2 incubated for 6 hrs by dual luciferase reporter gene assay; type: functional, cell-based
# Target sequence in this assay (P46093 whole entry): as the sequence (P46093 whole entry, looked up) above
# [3] = target: T2, G-protein coupled receptor 65 (Homo sapiens, UniProt Q8IYL9); experiment: Antagonist activity at N-terminal HA-tagged TDAG8 receptor (unknown origin) expressed in HEK293 cells assessed as inhibition of pH dependent cAMP response element-driven transcriptional activity at >1 uM at pH 7.2 incubated for 6 hrs by dual luciferase reporter gene assay; type: functional, cell-based
# T2 sequence (Q8IYL9 whole entry): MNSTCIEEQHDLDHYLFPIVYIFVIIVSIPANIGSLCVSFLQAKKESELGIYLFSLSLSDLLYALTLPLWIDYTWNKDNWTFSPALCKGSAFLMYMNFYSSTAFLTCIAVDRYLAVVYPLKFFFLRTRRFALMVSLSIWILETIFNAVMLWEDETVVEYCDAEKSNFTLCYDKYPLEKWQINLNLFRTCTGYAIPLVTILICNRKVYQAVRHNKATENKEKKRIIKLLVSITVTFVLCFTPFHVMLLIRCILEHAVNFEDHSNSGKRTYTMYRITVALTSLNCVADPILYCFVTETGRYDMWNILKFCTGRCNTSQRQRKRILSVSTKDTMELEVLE
# [4] = target: T3, G-protein coupled receptor 68 (Homo sapiens, UniProt Q15743); experiment: Antagonist activity at N-terminal HA-tagged OGR1 (unknown origin) expressed in HEK293 cells assessed as inhibition of pH dependent nuclear factor of activated T-cell activity at >1 uM at pH 7.2 incubated for 6 hrs by dual luciferase reporter gene assay; type: cell-based
# T3 sequence (Q15743 whole entry): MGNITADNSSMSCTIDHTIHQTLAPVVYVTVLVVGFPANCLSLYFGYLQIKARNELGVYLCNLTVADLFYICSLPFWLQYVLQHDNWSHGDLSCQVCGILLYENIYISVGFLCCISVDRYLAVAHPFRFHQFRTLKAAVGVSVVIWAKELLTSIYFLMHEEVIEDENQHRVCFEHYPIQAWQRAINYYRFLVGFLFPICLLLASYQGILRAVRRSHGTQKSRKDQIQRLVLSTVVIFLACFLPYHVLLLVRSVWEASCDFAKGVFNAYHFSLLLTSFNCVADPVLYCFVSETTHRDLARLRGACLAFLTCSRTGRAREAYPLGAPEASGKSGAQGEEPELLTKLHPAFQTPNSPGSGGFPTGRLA
# [5] = target: T2, G-protein coupled receptor 65; experiment: Antagonist activity at N-terminal HA-tagged TDAG8 receptor (unknown origin) expressed in HEK293 cells assessed as inhibition of pH dependent cAMP response element-driven transcriptional activity at pH 7.2 incubated for 6 hrs by dual luciferase reporter gene assay; type: functional, cell-based
# [6] = target: T3, G-protein coupled receptor 68; experiment: Antagonist activity at N-terminal HA-tagged OGR1 (unknown origin) expressed in HEK293 cells assessed as inhibition of pH dependent nuclear factor of activated T-cell activity at pH 7.2 incubated for 6 hrs by dual luciferase reporter gene assay; type: cell-based
# Mus musculus [7] = experiment: (§1) Increase in survival of C57BL/6J mouse permanent left anterior descending coronary artery ligation model of myocardial infarction assessed as survival rate at 6.7 mg/kg/day, ip bid dosed from 1 day before to 7 day after myocardial infarction without operation day measured up to 28 days (reference value: 14.3 %); type: functional
# Mus musculus [8] = experiment: as §1, with “20” for “6.7”; type: functional
SMILES,Ratio [1],IC50 [2],also measured
CCc1nc2c(C)cc(C)nc2n1Cc1ccc2c(c1)CCc1cc(CN3CCN(C)CC3)ccc1N2,0.42,0.13 µM,inhibition [3]: Active; inhibition [4]: Active
Cc1nccn1Cc1ccc2c(c1)CCc1ccccc1N2,1.24,–,–
CCc1nc2c(C)cc(C)nc2n1Cc1ccc2c(c1)CCc1ccccc1N2,0.22,0.9 µM,–
c1ccc2c(c1)CCc1cc(Cn3ccnc3)ccc1N2,1.11,–,–
CCc1nc2c(C)cc(C)nc2n1Cc1ccc(Nc2ccccc2)cc1,0.54,> 10 µM,–
CCc1nc2c(C)cc(C)nc2n1Cc1ccc2c(c1)CCc1cc(CN3CCCC3)ccc1N2,0.4,–,–
CCc1nc2c(C)cc(C)nc2n1Cc1ccc2c(c1)Sc1ccccc1N2,0.38,0.91 µM,–
CCc1nc2c(C)cc(C)nc2n1Cc1ccc2c(c1)CCc1cc(CN3CCOCC3)ccc1N2,0.41,–,–
CCc1nc2c(C)cc(C)nc2n1Cc1ccc2ccccc2c1,0.52,–,–
Cc1nc2ccccc2n1Cc1ccc2c(c1)CCc1ccccc1N2,0.57,–,–
CCc1nc2c(C)cc(C)nc2n1Cc1ccccc1,0.72,–,–
CCc1nc2ccccc2n1Cc1ccc2c(c1)CCc1ccccc1N2,0.44,> 10 µM,–
c1ccc2c(c1)CCc1cc(Cn3ccc4ccccc43)ccc1N2,0.44,–,–
c1ccc2c(c1)CCc1cc(Cn3cnc4ccccc43)ccc1N2,0.52,> 10 µM,–
CCc1nccn1Cc1ccc2c(c1)CCc1ccccc1N2,1.22,–,–
CCc1nc2c(C)cc(C)nc2n1Cc1ccc2c(c1)CCc1cc(CN3CCCCC3)ccc1N2,0.39,0.067 µM,IC50 [5]: > 10 µM; IC50 [6]: > 10 µM; survival at 6.7 mg/kg/day (Mus musculus [7]): 100%; survival at 20 mg/kg/day (Mus musculus [8]): 62.5%
CCc1nc2c(C)cc(C)nc2n1Cc1ccc2c(c1)C=Cc1ccccc1N2,0.36,–,–
c1ccc2c(c1)CCc1cc(Cn3c4ccccc4c4ccccc43)ccc1N2,1.03,–,–
